# Laboratory results reported in article PMC6345968, “Structural basis for species-selective targeting of Hsp90 in a pathogenic fungus” (Nature Communications, 2019).
# Where two headings read alike, the source gives them in different places.
# Assays:
# S. cerevisiae Hsp90 [1] = system: S. cerevisiae Hsp90; parameters: method as in Owen, B. A. L. et al. J. Biol. Chem. 277, 7086–7091 (2002); conditions: ref Owen, B. A. L. et al. J. Biol. Chem. 277, 7086–7091 (2002); read-out: Km (ATP); cited from earlier work
# S. cerevisiae Hsp90 [2] = target: S. cerevisiae Hsp90; parameters: method as in Owen, B. A. L. et al. J. Biol. Chem. 277, 7086–7091 (2002); conditions: ref Owen, B. A. L. et al. J. Biol. Chem. 277, 7086–7091 (2002); read-out: Kd for ATP; cited from earlier work
# C. albicans Hsp90 [3] = target: T1, C. albicans Hsp90 (Candida albicans, UniProt P46598); assay: ATPase activity, Michaelis-Menten / Lineweaver-Burk; assay type: biochemical; parameters: the core ATPase activity of purified full-length homodimers from each species; 6x-His (pRSET-A) (N); made in house; host or cells: E. coli RIL; conditions: γ-32P-labeled ATP
# T1 sequence (P46598 whole entry): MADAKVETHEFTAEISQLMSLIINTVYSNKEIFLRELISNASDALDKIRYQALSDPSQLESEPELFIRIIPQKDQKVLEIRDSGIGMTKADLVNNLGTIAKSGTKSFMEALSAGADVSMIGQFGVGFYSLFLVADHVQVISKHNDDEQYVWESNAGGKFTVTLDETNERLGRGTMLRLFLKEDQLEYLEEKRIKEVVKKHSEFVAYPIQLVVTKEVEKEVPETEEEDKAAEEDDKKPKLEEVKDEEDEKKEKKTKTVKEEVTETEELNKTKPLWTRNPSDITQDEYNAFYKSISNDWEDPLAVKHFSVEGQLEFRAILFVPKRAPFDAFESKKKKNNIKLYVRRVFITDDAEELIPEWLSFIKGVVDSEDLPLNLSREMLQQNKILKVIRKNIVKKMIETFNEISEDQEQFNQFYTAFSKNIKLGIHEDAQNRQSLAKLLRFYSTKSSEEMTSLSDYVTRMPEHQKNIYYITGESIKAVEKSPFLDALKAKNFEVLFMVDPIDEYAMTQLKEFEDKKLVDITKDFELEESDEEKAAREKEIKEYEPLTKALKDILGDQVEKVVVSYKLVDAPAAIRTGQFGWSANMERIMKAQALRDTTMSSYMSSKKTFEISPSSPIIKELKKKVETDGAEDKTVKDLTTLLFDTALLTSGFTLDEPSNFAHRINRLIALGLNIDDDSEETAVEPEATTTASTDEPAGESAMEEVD
# Source text: 1151 Biochemical characterization of C. albicans Hsp90. a, Binding of C. albicans Hsp90 to its
# 1152 natural ligand ATP. b, Michaelis-Menten plot correlating the rate of ATP hydrolysis by C.
# 1153 albicans Hsp90 with concentration of substrate. Fractional cleavage of γ-32P-labeled ATP is
# 1154 plotted against ATP concentration. c, Lineweaver-Burk plot performed to define Km and kcat for
# 1155 the ATPase activity of C. albicans Hsp90. d, Comparison of parameters determined for C.
# 1156 albicans Hsp90 with previously published data for homologous human and yeast (S. cerevisiae)
# human Hsp90 [4] = target: human Hsp90; parameters: method as in Owen, B. A. L. et al. J. Biol. Chem. 277, 7086–7091 (2002); conditions: ref Owen, B. A. L. et al. J. Biol. Chem. 277, 7086–7091 (2002); read-out: Kd for ATP; cited from earlier work
# human Hsp90 [5] = conditions: read-out: Km (ATP); ref Owen, B. A. L. et al. J. Biol. Chem. 277, 7086–7091 (2002); cited from earlier work
# C. albicans Hsp90 [6] = target: T1, C. albicans Hsp90; assay: ATP binding by intrinsic tryptophan fluorescence quenching; conditions: read-out: Kd for ATP; purified full-length Hsp90
# Source text: tryptophan fluorescence quenching by ligands.
# Intrinsic tryptophan fluorescence was
# Difference in intrinsic fluorescence of
# assuming single-site specific binding.
# [7] = system: C. albicans reporter strain CaLC922; assay type: cell-based, Candida albicans; conditions: 6-h exposure
# Experimental: In addition to effects on host immune function, we also examined activation of the evolutionarily conserved heat-shock response by CMLD013075.
# Activation of the response in C. albicans was also measured in 96-well format using a reporter strain (CaLC922) engineered with HSP70 promoter elements driving expression of the LacZ gene from Streptococcus thermophilus integrated at the HSP70 locus with the URA3 marker for selection. […]
# Hsp90 in HEPG2 lysate = conditions: for FP signal: raw
# [8] = system: S. cerevisiae expressing C. albicans Hsp90; assay: Broth microdilution growth inhibition (MIC), yeast with C. albicans Hsp90 as sole Hsp90; assay type: cell-based, Saccharomyces cerevisiae
# Source text: (§1) A critical consideration in the development of an effective antifungal is not just target binding, but also access to the target across microbial cell membranes and cell walls. Therefore, we evaluated the potency and selectivity of oxime analogs using drug susceptibility assays. We used strains of S. cerevisiae where both endogenous genes encoding isoforms of Hsp90 have been disrupted and growth is solely dependent upon C. albicans or human Hsp90 isoforms.
# (§2) Antifungal tolerance and resistance were determined in flat bottom, 96-well microtiter plates using a modified broth microdilution protocol as described[8],[10]. All Hsp90 inhibitors were formulated in dimethyl sulfoxide (DMSO, Sigma Aldrich Co.); fluconazole was dissolved in sterile ddH2O. Each strain was tested in duplicate on at least two occasions. […] To test for fungicidal activity, cultures from MIC plates were spotted on YPD agar plates using a spotter (Frogger, V&P Scientific, Inc). Plates were photographed after 48 h of incubations at 30 °C.
# [9] = target: T2, Hsp90 in C. albicans (SC5314) lysate (Candida albicans, UniProt P46598); assay: biochemical; assay type: binding; conditions: for FP signal: raw
# T2 construct: endogenous in cells; host or cells: C. albicans SC5314 whole-cell lysate
# T2 sequence (P46598 whole entry): as above
# [10] = system: C. albicans clinical isolate CaCi-2; assay: Growth inhibition in culture; assay type: cell-based, Candida albicans; conditions: 48-hour exposure
# Source text: (§3) We began by measuring inhibition of C. albicans growth in culture.
# (§4) Each colored box represents the mean of duplicate determinations. Color scale for relative growth is provided to far right of panel, green: no inhibition to black: complete inhibition. […] Cultures were then fixed and stained by Periodic Acid-Schiff (PAS) technique to visualize fungal burden (dark red/purple signal) and underlying human cells (light pink signal). Representative fields from conventional light photomicrographs are presented at the same magnification in all panels. The experiment was repeated in two independent biological replicates to confirm results. Scale bar, 100 μm
# as §2
# C. albicans SN95 = assay: Growth inhibition in culture; assay type: cell-based, Candida albicans; conditions: 48-hour exposure
# Source text: as §3, §4, §2
# C. albicans CaCi-2 = assay: Checkerboard with fluconazole, Bliss independence; assay type: cell-based, Candida albicans; conditions: 48 hours
# Experimental: Each colored box represents the mean of duplicate determinations. […] Error bars, SD.
# as §2
# [11] = system: S. cerevisiae expressing human Hsp90α; assay type: cell-based, Saccharomyces cerevisiae; conditions: isogenic strains
# Source text: as §1, §2
# Raw264.7 macrophages = assay: Phagocytosis of GFP C. albicans by macrophages, flow cytometry; assay type: cell-based, mouse; conditions: 2 h pre-treatment
# Experimental: Compromise of host immune function and other target-related toxicities preclude the use of non-species-selective Hsp90 inhibitors in the treatment of fungal infections. Host defense against invasive infection relies heavily on the ingestion and destruction of C. albicans by innate immune cells, such as macrophages. […] After an additional two hours, phagocytosis of the fluorescently labeled fungi was measured by flow cytometry. […] This Hsp90-dependent morphogenetic program has an important role in the organism’s virulence and interactions with host immune effectors such as macrophages.
# The ingestion of GFP-marked C. albicans CaCi-2 (CaLC867, Table S4) by mouse macrophages was monitored using flow cytometry. Raw264.7 macrophage cultures were pre-treated with various concentrations of Hsp90 inhibitors for 2 h at 37 °C and then infected with fungus at a multiplicity of infection of ~2 for an additional 2 h. Wells were harvested by trypsinization and resultant cell suspensions incubated with Guava ViaCount reagent per manufacturer’s recommendation (Millipore Sigma, Cat #4000-0040). Red fluorescent signal was used to identify macrophages while green fluorescent signal identified the fungus. Dual positive (red and green) events with appropriate forward- and side-scatter parameters were quantitated as representative of ingestion of fungus by a macrophage. […]
# [12] = SC5314 lysate, 1.372 nM compound
# [13] = SC5314 lysate, 4.115 nM compound
# [14] = SC5314 lysate, 12.346 nM compound
# [15] = SC5314 lysate, 37.037 nM compound
# [16] = SC5314 lysate, 111.111 nM compound
# [17] = SC5314 lysate, 333.333 nM compound
# [18] = SC5314 lysate, 1000 nM compound
# [19] = SC5314 lysate, 3000 nM compound
smiles,measurement,setting,value
Nc1ncnc2c1ncn2[C@@H]1O[C@H](COP(=O)(O)OP(=O)(O)OP(=O)(O)O)[C@@H](O)[C@H]1O [ATP],Km,S. cerevisiae Hsp90 [1],511 µM
same,Kd,S. cerevisiae Hsp90 [2],132 µM
same,Km,C. albicans Hsp90 [3],533 µM
same,Kd,human Hsp90 [4],240 µM
same,Km,human Hsp90 [5],324 µM
same,Kd,C. albicans Hsp90 [6],125 µM
"CC(C)c1cc(-c2n[nH]c(=O)n2-c2ccc3c(ccn3C)c2)c(O)cc1O [ganetespib, reference compound]",heat-shock reporter activation,293T reporter cells,concentration-dependent reporter activation
same,heat-shock reporter activation,[7],neither ganetespib nor radicicol induced the reporter to a measurable extent
C[C@@H]1C[C@@H]2O[C@@H]2/C=C\C=C\C(=NOCc2ccccc2Cl)Cc2c(Cl)c(O)cc(O)c2C(=O)O1 [compound 4],Ratio rel. GdA (HepG2),Hsp90 in HEPG2 lysate; EC50 / EC50 of GdA in HepG2 lysate,90.1713
same,Ratio rel. GdA (HepG2),"Hsp90 in HEPG2 lysate; EC50 relative to GdA, HEPG2 lysate",90.1713
same,"FP signal, Fxn Control","Hsp90 in HEPG2 lysate; HEPG2 lysate, log concentration 0.137354 (1.372 nM)",1.0099
same,"FP signal, Fxn Control","Hsp90 in HEPG2 lysate; HEPG2 lysate, log concentration 0.61437 (4.115 nM)",1.0198
same,"FP signal, Fxn Control","Hsp90 in HEPG2 lysate; HEPG2 lysate, log concentration 1.09153 (12.346 nM)",1.0099
same,"FP signal, Fxn Control","Hsp90 in HEPG2 lysate; HEPG2 lysate, log concentration 1.56864 (37.037 nM)",1.0099
same,"FP signal, Fxn Control","Hsp90 in HEPG2 lysate; HEPG2 lysate, log concentration 2.04576 (111.111 nM)",0.9901
same,"FP signal, Fxn Control","Hsp90 in HEPG2 lysate; HEPG2 lysate, log concentration 2.52288 (333.333 nM)",0.9158
same,"FP signal, Fxn Control","Hsp90 in HEPG2 lysate; HEPG2 lysate, log concentration 3 (1000 nM)",0.6881
same,"FP signal, Fxn Control","Hsp90 in HEPG2 lysate; HEPG2 lysate, log concentration 3.47712 (3000 nM)",0.2178
same,"FP signal, Fxn Control","Hsp90 in HEPG2 lysate; HEPG2 lysate, log concentration -0.340084 (0.457 nM)",1.0099
same,FP signal (raw),"Hsp90 in HEPG2 lysate; HepG2 lysate, 0.457 nM",204
same,FP signal,"Hsp90 in HEPG2 lysate; HepG2 lysate, 0.457 nM compound",204
same,FP signal (raw),"Hsp90 in HEPG2 lysate; HepG2 lysate, 1.372 nM",204
same,FP signal,"Hsp90 in HEPG2 lysate; HepG2 lysate, 1.372 nM compound",204
same,FP signal (raw),"Hsp90 in HEPG2 lysate; HepG2 lysate, 4.115 nM",206
same,FP signal,"Hsp90 in HEPG2 lysate; HepG2 lysate, 4.115 nM compound",206
same,FP signal (raw),"Hsp90 in HEPG2 lysate; HepG2 lysate, 12.346 nM",204
same,FP signal,"Hsp90 in HEPG2 lysate; HepG2 lysate, 12.346 nM compound",204
same,FP signal (raw),"Hsp90 in HEPG2 lysate; HepG2 lysate, 37.037 nM",204
same,FP signal,"Hsp90 in HEPG2 lysate; HepG2 lysate, 37.037 nM compound",204
same,FP signal (raw),"Hsp90 in HEPG2 lysate; HepG2 lysate, 111.111 nM",200
same,FP signal,"Hsp90 in HEPG2 lysate; HepG2 lysate, 111.111 nM compound",200
same,FP signal (raw),"Hsp90 in HEPG2 lysate; HepG2 lysate, 333.333 nM",185
same,FP signal,"Hsp90 in HEPG2 lysate; HepG2 lysate, 333.333 nM compound",185
same,FP signal (raw),"Hsp90 in HEPG2 lysate; HepG2 lysate, 1000 nM",139
same,FP signal,"Hsp90 in HEPG2 lysate; HepG2 lysate, 1000 nM compound",139
same,FP signal (raw),"Hsp90 in HEPG2 lysate; HepG2 lysate, 3000 nM",44
same,FP signal,"Hsp90 in HEPG2 lysate; HepG2 lysate, 3000 nM compound",44
same,EC50,"Hsp90 in HEPG2 lysate; HepG2 lysate, oxime panel experiment 220817",2 µM
same,MIC,[8],2.6 µM
same,normalized fungal selectivity in lysates,"[9]; C. albicans SC5314 vs HEPG2 lysate, FP",2.9 fold
same,EC50,"[9]; EC50, SC5314 lysate, not normalized, oxime panel experiment 220817",0.531 µM
same,Ratio re. GdA,"[9]; EC50 relative to GdA, SC5314 lysate",31.1993
same,FP signal relative to 0 nM,"[9]; SC5314 lysate, 0.457 nM compound",0.9904
same,FP signal (raw),"[9]; SC5314 lysate, 1.372 nM",208
same,FP signal relative to 0 nM,[9]; [12],1
same,FP signal,[9]; [12],208
same,FP signal (raw),"[9]; SC5314 lysate, 4.115 nM",207
same,FP signal relative to 0 nM,[9]; [13],0.9952
same,FP signal,[9]; [13],207
same,FP signal (raw),"[9]; SC5314 lysate, 12.346 nM",202
same,FP signal relative to 0 nM,[9]; [14],0.9712
same,FP signal,[9]; [14],202
same,FP signal (raw),"[9]; SC5314 lysate, 37.037 nM",199
same,FP signal relative to 0 nM,[9]; [15],0.9567
same,FP signal,[9]; [15],199
same,FP signal (raw),"[9]; SC5314 lysate, 111.111 nM",186
same,FP signal relative to 0 nM,[9]; [16],0.8942
same,FP signal,[9]; [16],186
same,FP signal (raw),"[9]; SC5314 lysate, 333.333 nM",145
same,FP signal relative to 0 nM,[9]; [17],0.6971
same,FP signal,[9]; [17],145
same,FP signal (raw),"[9]; SC5314 lysate, 1000 nM",75
same,FP signal relative to 0 nM,[9]; [18],0.3606
same,FP signal,[9]; [18],75
same,FP signal (raw),"[9]; SC5314 lysate, 3000 nM",39
same,FP signal relative to 0 nM,[9]; [19],0.1875
same,FP signal,[9]; [19],39
same,HepG2/SC5314,"[9]; ratio of GdA-normalized EC50s, human over fungal lysate",2.89
same,HepG2/SC5314,"[9]; ratio of GdA-relative EC50 ratios, HepG2 over SC5314",2.89
"C[C@@H]1C[C@H]2O[C@@H]2/C=C\C=C\C(=O)Cc2c(Cl)c(O)cc(O)c2C(=O)O1 [radicicol, reference compound]",single-agent growth inhibition,[10],comparable single-agent activity
same,single-agent growth inhibition,C. albicans SN95,comparable single-agent activity
same,Bliss synergy δ with fluconazole,C. albicans CaCi-2,22.6
same,activity compared with strain expressing C. albicans Hsp90,[11],converse
same,heat-shock reporter activation,293T reporter cells,concentration-dependent reporter activation
same,growth inhibition,"[8]; twofold dilution series, heat map",significantly inhibit growth
same,effect on engulfment of C. albicans,Raw264.7 macrophages,Neither compound impaired engulfment
